Reference: patent publication US8796327B2, “Method for inhibiting production of cytokines of T helper cell type II and/or inhibiting production of chemokines using brazilin” (China Medical University, priority 2010, dated 2014)

What was measured:
c-maf mRNA = assay: Real-time PCR of c-maf mRNA in EL-4 T lymphoma cells; format: cell-based, mouse; conditions: for Expression level of c-maf mRNA: PMA + cAMP stimulated EL-4 cells, corrected to HPRT
Procedure: (§1) Then, at a density of 5×10^5 counts/ml, the T lymphoma cells were bred in a six-well culture dish, and at the 0th minute, brazilin of different concentrations (0.3, 1, 3, 10, or 30 micromole (μM)) was added into the cell culture solution at an amount of 1 μl/ml-cell culture solution. Then, the cells were put into the incubator to be cultured therein. 30 minutes later, at an amount of 1 μl/ml-cell culture solution, 5 μg/ml PMA and cAMP at a 250 mmol concentration were added to the cell culture solution to stimulate the expression of IL-4 and IL-5 of the T lymphoma cells. During the process of cell culture, the trypan blue exclusion assay was employed to observe effect of the brazilin on the cell viability, results of which are shown in Table 1 and FIG. 1.
(§2) Expression of mRNA of IL-4, IL-5, GATA-3, c-maf, and T-bet were analyzed in a quantitative way through real-time polymerase chain reaction (PCR) by extracting RNA in the cells obtained in Experiment A (using an RNA purifying kit), converting the RNA into cDNA through reverse transcription, and using an ABI PRISM 7700 sequence detector (Applied Biosystems, Foster City, Calif., America) to analyze the gene expression of mRNA. The PCR was carried out under the following conditions: 50° C., 2 minutes; 95° C., 10 minutes; 60° C., 1 minute; then repeating this cycle forty times. A threshold cycle (or referred to as Ct) was used to represent the expression level of each gene, and an expression level of hypoxanthine-guanine phosphoribosy transferase (HPRT) genes of the endogenous control group was used for correction of the expression level of mRNA.

IFN-γ = assay: ELISA of IFN-γ in bronochial alveolar lavage fluid, mice with asthma (OVA); format: in vivo, BALB/c mice; conditions: for IFN-γ concentration (pico-gram/ml): i.p. or i.t., OVA-sensitized BALB/c mice
Procedure: (§3) In Example 2, mice with asthma were used to conduct in vivo experiments, and ovalbumin (OVA) was used as an allergen.
(§4) The mice were sensitized (or challenged) according to the steps shown in FIG. 9 (see Lee et al., Lentiviral-mediated GATA-3 RNAi decreases allergic airway inflammation and hyperresponsiveness. Molecular Therapy, 2008; 16:60-65, which is incorporated herein in its entirety by reference). First, 50 μg OVA (using 2 mg alumina (Alum, Alumlmuject, Pierce Chemical, Rockford, Ill., USA) as an adjuvant) was injected into six to eight-week-old BALB/c female mice (from National Laboratory Animal Center, Taiwan) by intraperitoneal injection (i.p.). At 0th, 14th, and 28th day, the mice were injected with OVA at the same dosage. Before the administration of OVA at the forty-first and the forty-second days, different dosages of brazilin (high dose: 430 μg/mice; low dose: 43 μg/mice) were administrated to the mice by intraperitoneal injection (i.p.) or intratracheal instillation (i.t.). During the fortieth to the forty-second days, 100 μg OVA was dissolved in 40 μl PBS, and was administrated to the mice by intranasal instillation (i.n.) (once everyday, for three days). At the forty-third day, airway hyperresponsiveness of the mice was observed. […]
(§5) In Experiment D, after 24 hours from the last administration of OVA into the noses of the mice, the mice were sacrificed, and the blood was collected from the orbital cavities of the mice. […] Cells obtained after the centrifugation were re-suspended in a 1 ml HBSS buffer solution, and the total cell number was counted with a hemocytometer.
(§6) The bronochial alveolar lavage fluid collected in Experiment E was centrifuged at 4° C. and with a revolution speed of 400 g for 10 minutes. After the supernatant was collected, the expression of eotaxin, IL-4, IL-5, and IFN-γ was analyzed with an ELISA kit (R&D Systems, Inc., USA). […]

IL-5 = assay: ELISA of IL-5 in bronochial alveolar lavage fluid, mice with asthma (OVA); format: in vivo, BALB/c mice; conditions: for IL-5 concentration (pico-gram/ml): i.p. or i.t., OVA-sensitized BALB/c mice
Procedure: as §3, §4, §5, §6

GATA-3 mRNA = assay: Real-time PCR of GATA-3 mRNA in EL-4 T lymphoma cells; format: cell-based, mouse; conditions: for Expression level of GATA-3 mRNA: PMA + cAMP stimulated EL-4 cells, corrected to HPRT
Procedure: as §1, §2

[1] = system: macrophages, lymphocytes, eosinophils, and neutrophils in bronochial alveolar lavage fluid; assay: Immunocyte counts in bronochial alveolar lavage fluid, mice with asthma (OVA); format: in vivo; conditions: OVA-sensitized BALB/c mice; for Number of eosinophils (×10^4) / Number of lymphocytes (×10^4) / Number of macrophages (×10^4) / Number of neutrophils (×10^4): i.p. or i.t., bronochial alveolar lavage fluid
Procedure: as §3
The mice were sensitized (or challenged) according to the steps shown in FIG. 9 (see Lee et al., Lentiviral-mediated GATA-3 RNAi decreases allergic airway inflammation and hyperresponsiveness. Molecular Therapy, 2008; 16:60-65, which is incorporated herein in its entirety by reference). First, 50 μg OVA (using 2 mg alumina (Alum, Alumlmuject, Pierce Chemical, Rockford, Ill., USA) as an adjuvant) was injected into six to eight-week-old BALB/c female mice (from National Laboratory Animal Center, Taiwan) by intraperitoneal injection (i.p.). At 0th, 14th, and 28th day, the mice were injected with OVA at the same dosage. Before the administration of OVA at the forty-first and the forty-second days, different dosages of brazilin (high dose: 430 μg/mice; low dose: 43 μg/mice) were administrated to the mice by intraperitoneal injection (i.p.) or intratracheal instillation (i.t.). During the fortieth to the forty-second days, 100 μg OVA was dissolved in 40 μl PBS, and was administrated to the mice by intranasal instillation (i.n.) (once everyday, for three days). At the forty-third day, airway hyperresponsiveness of the mice was observed. At the forty-sixth day, the mice were sacrificed and used to conduct the following Experiments E to G During the above procedure, it was observed if any toxicity response arises after the administration of brazilin to the mice. In this experiment, the mice administrated with OVA were used as a positive control, and the mice not administrated with OVA were used as a negative control.
In Experiment D, after 24 hours from the last administration of OVA into the noses of the mice, the mice were sacrificed, and the blood was collected from the orbital cavities of the mice. Then, a cannula was immediately inserted into the bronchi of the mice, and the lungs of the mice were washed with a 1 ml HBSS buffer solution containing no calcium and magnesium ions three times, and a bronochial alveolar lavage fluid is collected. The fluid was centrifuged at 4° C. and with a revolution speed of 400 g for 10 minutes. Cells obtained after the centrifugation were re-suspended in a 1 ml HBSS buffer solution, and the total cell number was counted with a hemocytometer.
Then, the cells were fixed on a glass sheet in a way of cytocentrifuged preparations, and the Liu's stain (see Lee et al., Lentiviral-mediated GATA-3 RNAi decreases allergic airway inflammation and hyperresponsiveness. Molecular Therapy. 2008; 16:60-65, which is incorporated herein in its entirety by reference) was carried out to calculate the number of various kinds of cells. The cell number was calculated by counting the number of macrophages, lymphocytes, eosinophils, and neutrophils in 300 cells respectively. The cells were categorized according to their standard morphology, and the invasion of inflammatory cells into the lungs was observed.

IL-5 mRNA = assay: Real-time PCR of IL-5 mRNA in EL-4 T lymphoma cells; format: cell-based, mouse; conditions: for Expression level of IL-5 mRNA: PMA + cAMP stimulated EL-4 cells, corrected to HPRT
Procedure: as §1, §2

IL-4 = assay: ELISA of IL-4 in supernatant of EL-4 T lymphoma cells; format: cell-based, mouse; conditions: EL-4 cells, no PMA + cAMP

Structure (SMILES): Oc1ccc2c(c1)OC[C@]1(O)Cc3cc(O)c(O)cc3[C@H]21 [brazilin]
- expression of mRNA of transcription factor c-maf (c-maf mRNA; EL-4 cells, result in words): inhibited
- Expression level of c-maf mRNA (c-maf mRNA; brazilin 0.3 μM): 3.388 ± 0.2410
- Expression level of c-maf mRNA (c-maf mRNA; brazilin 1 μM): 3.318 ± 0.1177
- Expression level of c-maf mRNA (c-maf mRNA; brazilin 3 μM): 2.846 ± 0.2632
- Expression level of c-maf mRNA (c-maf mRNA; brazilin 10 μM): 1.826 ± 0.6278
- Expression level of c-maf mRNA (c-maf mRNA; brazilin 30 μM): 1.302 ± 0.1868
- effect on IFN-γ cytokine of Th1 cells (IFN-γ; BALB/c mice, result in words): no effect
- IFN-γ concentration (pico-gram/ml) (IFN-γ; High dose (430 μg/mice)): 4.288 ± 0.868 pico-gram/ml
- IFN-γ concentration (pico-gram/ml) (IFN-γ; Low dose (43 μg/mice)): 3.598 ± 1.218 pico-gram/ml
- production of IL-5 cytokine (IL-5; BALB/c mice, result in words): inhibited
- IL-5 concentration (pico-gram/ml) (IL-5; High dose (430 μg/mice)): 52.10 ± 6.223 pico-gram/ml
- IL-5 concentration (pico-gram/ml) (IL-5; Low dose (43 μg/mice)): 70.65 ± 6.510 pico-gram/ml
- expression of mRNA of transcription factor GATA-3 (GATA-3 mRNA; EL-4 cells, result in words): inhibited
- Expression level of GATA-3 mRNA (GATA-3 mRNA; brazilin 0.3 μM): 3.960 ± 0.1234
- Expression level of GATA-3 mRNA (GATA-3 mRNA; brazilin 1 μM): 3.036 ± 0.5622
- Expression level of GATA-3 mRNA (GATA-3 mRNA; brazilin 3 μM): 2.663 ± 0.6056
- Expression level of GATA-3 mRNA (GATA-3 mRNA; brazilin 10 μM): 1.812 ± 0.1538
- Expression level of GATA-3 mRNA (GATA-3 mRNA; brazilin 30 μM): 1.434 ± 0.2530
- Number of eosinophils (×10^4) ([1]; High dose (430 μg/mice)): 10.52 ± 4.543 ×10^4
- Number of lymphocytes (×10^4) ([1]; High dose (430 μg/mice)): 0.8106 ± 0.3015 ×10^4
- Number of macrophages (×10^4) ([1]; High dose (430 μg/mice)): 34.25 ± 4.970 ×10^4
- Number of neutrophils (×10^4) ([1]; High dose (430 μg/mice)): 0.2178 ± 0.1799 ×10^4
- Number of eosinophils (×10^4) ([1]; Low dose (43 μg/mice)): 21.39 ± 1.491 ×10^4
- Number of lymphocytes (×10^4) ([1]; Low dose (43 μg/mice)): 0.7421 ± 0.2902 ×10^4
- Number of macrophages (×10^4) ([1]; Low dose (43 μg/mice)): 41.67 ± 6.885 ×10^4
- Number of neutrophils (×10^4) ([1]; Low dose (43 μg/mice)): 0.6476 ± 0.2759 ×10^4
- number of eosinophils in the lungs of the mice ([1]; result in words): decreased
- expression of mRNA of IL-5 (IL-5 mRNA; EL-4 cells, result in words): inhibited
- Expression level of IL-5 mRNA (IL-5 mRNA; brazilin 0.3 μM): 1397 ± 172.2
- Expression level of IL-5 mRNA (IL-5 mRNA; brazilin 1 μM): 1225 ± 47.23
- Expression level of IL-5 mRNA (IL-5 mRNA; brazilin 3 μM): 1009 ± 77.66
- Expression level of IL-5 mRNA (IL-5 mRNA; brazilin 10 μM): 926.2 ± 40.70
- Expression level of IL-5 mRNA (IL-5 mRNA; brazilin 30 μM): 594.8 ± 252.9
- Concentration of IL-4 (pico-gram/ml) (IL-4; brazilin 0.3 μM): 2.569 ± 0.1160 pico-gram/ml
- Concentration of IL-4 (pico-gram/ml) (IL-4; brazilin 1 μM): 5.353 ± 1.276 pico-gram/ml
- Concentration of IL-4 (pico-gram/ml) (IL-4; brazilin 3 μM): 5.469 ± 0.1160 pico-gram/ml
- Concentration of IL-4 (pico-gram/ml) (IL-4; brazilin 10 μM): 7.093 ± 0.3480 pico-gram/ml
- Concentration of IL-4 (pico-gram/ml) (IL-4; brazilin 30 μM): 4.715 ± 0.9859 pico-gram/ml
